This note sets out measurements from ChEMBL document CHEMBL1201862, “PubChem BioAssay data set” (2004).

Each structure is given as a SMILES string. Active and inactive are the calls of the source. Where only a bound is given, the exact number is not on record here.

Assay [1] has as its target T1, Estrogen receptor beta (Homo sapiens, UniProt Q92731). Briefly: ERβ–SRC-3 coactivator interaction inhibitors, confirmation, orthogonal assay, biochemical, ELISA, streptavidin-HRP readout (AID 1060).
The target in assay [2] is G-protein coupled receptor 35 (Homo sapiens, UniProt Q9HC97). Description: GPR35 antagonists blocking zaprinast-driven arrestin recruitment, primary screen, imaging, U2OS, beta-arrestin-GFP, zaprinast agonist (AID 2058).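 Further: antagonist potency meaning inhibition of agonist-induced arrestin redistribution.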 Format: functional. In general terms: Recruitment of arrestin is a read-out of receptor activation apart from second messengers.
Assay [3] can be described thus: NIH-3T3 fibroblast cytotoxicity, dose response, cytotoxicity control, cell-based, fluorescence, Alamar Blue, secondary assay (AID 2327).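 Further: NIH-3T3 mouse fibroblasts cultured with fluconazole at 8 µg/mL.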 Type of assay: functional. In general terms: The colour change of resazurin is a common sign of viable cells or microbes.
A short description of assay [4]: C. albicans growth with fluconazole, confirmation, fluorescence, retest (AID 2467). Type of assay: functional, cell-based.
Assay [5] has as its target T2, Mannose-6-phosphate isomerase (Homo sapiens, UniProt P34949).
T2 sequence (P34949 whole entry): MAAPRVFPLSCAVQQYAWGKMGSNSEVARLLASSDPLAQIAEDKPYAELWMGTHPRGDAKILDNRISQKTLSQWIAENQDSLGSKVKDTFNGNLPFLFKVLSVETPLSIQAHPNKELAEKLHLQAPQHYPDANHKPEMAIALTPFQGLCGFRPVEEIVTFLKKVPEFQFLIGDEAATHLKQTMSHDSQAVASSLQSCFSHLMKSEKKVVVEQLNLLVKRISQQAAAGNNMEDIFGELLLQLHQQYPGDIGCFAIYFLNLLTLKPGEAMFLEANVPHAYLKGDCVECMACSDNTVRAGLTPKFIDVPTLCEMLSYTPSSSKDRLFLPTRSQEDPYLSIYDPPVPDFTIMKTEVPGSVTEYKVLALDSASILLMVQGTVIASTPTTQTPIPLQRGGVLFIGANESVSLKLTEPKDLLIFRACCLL
Description: human PMI inhibitors, high substrate, primary screen, biochemical, fluorescence intensity, high mannose 6-phosphate (AID 1220).

Assay [6] deals with T3, Carboxy-terminal domain RNA polymerase II polypeptide A small phosphatase 1 (Homo sapiens, UniProt Q9GZU7).
T3 sequence (Q9GZU7 whole entry): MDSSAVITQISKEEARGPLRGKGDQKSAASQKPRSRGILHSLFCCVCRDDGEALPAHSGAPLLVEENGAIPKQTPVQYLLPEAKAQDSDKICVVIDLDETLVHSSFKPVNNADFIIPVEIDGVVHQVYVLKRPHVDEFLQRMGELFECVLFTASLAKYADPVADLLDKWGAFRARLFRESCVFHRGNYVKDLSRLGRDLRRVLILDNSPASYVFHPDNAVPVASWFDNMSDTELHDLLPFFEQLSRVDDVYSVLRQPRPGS
Description: inhibitors of CTDSP1, concentration-response testing, biochemical assay, absorbance-based, actives from ultra-high-throughput screening (AID 540297). Type of assay: functional.

Assay [7] relates to BJ. Description: cytotoxicity toward BJ-TERT fibroblasts, dose response, cell-based, RAS-independent, luminescence (AID 1933). Type of assay: functional. The following applies: Homo sapiens.
Assay [8] has as its system BJ. Description: cells. Type of assay: functional, cell-based. The following applies: Homo sapiens.
Assay [9] concerns BJ. Description: cytotoxicity toward BJ-TERT-LT-ST fibroblasts, dose response, cell-based, RAS-independent, luminescence (AID 1935).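 Further: BJ fibroblasts immortalized with TERT plus LT and ST oncogenes.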 Type of assay: functional. The following applies: Homo sapiens.
Assay [10] in a line: cytotoxicity toward DRD oncogenic fibroblasts, dose response, cell-based, non-viral oncogenic, luminescence (AID 1934). The following applies: Homo sapiens. Type of assay: functional.
Assay [11] addresses T1, Estrogen receptor beta.
The target in a further assay is Prothrombin (Homo sapiens, UniProt P00734). Description: Thrombin 1536 HTS Dose Response Confirmation. [Related pubchem assays: 1046 (Thrombin 1536 HTS; hits were confirmed in this assay)]. Type of assay: functional.
The nature of assay [12]: enhancers of respiration in Yfh1-depleted yeast, dose response, Friedreich's ataxia, plus single-dose screen (AID 1465).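 Further: yeast depleted of Yfh1p frataxin homolog grown on glycerol needing respiration; WST-1 tetrazolium dye reduction as measure of cellular dehydrogenase metabolic activity.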 Type of assay: functional.
Assay [13] in a line: HEp-2 cell cytotoxicity, dose response, cytotoxicity control for RSV inhibitor project, HTS (AID 2410). Type of assay: functional. The following applies: human respiratory syncytial virus.
Assay [14] addresses Intestinal-type alkaline phosphatase (Homo sapiens, UniProt P09923). Description: Dose Response confirmation of uHTS hits from a small molecule inhibitors of human intestinal alkaline phosphatase via a luminescent assay. [Related pubchem assays (depositor defined):AID2544, AID2574]. Format: functional.
A further assay deals with Large T antigen (Simian virus 40, UniProt P03070). Format: functional, Betapolyomavirus macacae.
A short description of assay [15]: Luminescence Cell-Based Dose Retest to Confirm Inhibitors of Cancer Stem Cells. [Related pubchem assays (depositor defined):AID2717, AID2721]. The following applies: Homo sapiens. Type of assay: functional.
Assay [16] concerns the target Neurotensin receptor type 1 (Homo sapiens, UniProt P30989). Type of assay: functional.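 Further: Image-based confirmatory dose-response assay measuring agonist activity at NTR1; NTR1-expressing U2OS osteosarcoma cells imaged for beta-arrestin GFP spot formation; agonist potency where compounds increase beta-arrestin recruitment.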
Assay [17] addresses T4, Histone-lysine N-methyltransferase NSD2 (Homo sapiens, UniProt O96028).
T4 sequence (O96028 whole entry): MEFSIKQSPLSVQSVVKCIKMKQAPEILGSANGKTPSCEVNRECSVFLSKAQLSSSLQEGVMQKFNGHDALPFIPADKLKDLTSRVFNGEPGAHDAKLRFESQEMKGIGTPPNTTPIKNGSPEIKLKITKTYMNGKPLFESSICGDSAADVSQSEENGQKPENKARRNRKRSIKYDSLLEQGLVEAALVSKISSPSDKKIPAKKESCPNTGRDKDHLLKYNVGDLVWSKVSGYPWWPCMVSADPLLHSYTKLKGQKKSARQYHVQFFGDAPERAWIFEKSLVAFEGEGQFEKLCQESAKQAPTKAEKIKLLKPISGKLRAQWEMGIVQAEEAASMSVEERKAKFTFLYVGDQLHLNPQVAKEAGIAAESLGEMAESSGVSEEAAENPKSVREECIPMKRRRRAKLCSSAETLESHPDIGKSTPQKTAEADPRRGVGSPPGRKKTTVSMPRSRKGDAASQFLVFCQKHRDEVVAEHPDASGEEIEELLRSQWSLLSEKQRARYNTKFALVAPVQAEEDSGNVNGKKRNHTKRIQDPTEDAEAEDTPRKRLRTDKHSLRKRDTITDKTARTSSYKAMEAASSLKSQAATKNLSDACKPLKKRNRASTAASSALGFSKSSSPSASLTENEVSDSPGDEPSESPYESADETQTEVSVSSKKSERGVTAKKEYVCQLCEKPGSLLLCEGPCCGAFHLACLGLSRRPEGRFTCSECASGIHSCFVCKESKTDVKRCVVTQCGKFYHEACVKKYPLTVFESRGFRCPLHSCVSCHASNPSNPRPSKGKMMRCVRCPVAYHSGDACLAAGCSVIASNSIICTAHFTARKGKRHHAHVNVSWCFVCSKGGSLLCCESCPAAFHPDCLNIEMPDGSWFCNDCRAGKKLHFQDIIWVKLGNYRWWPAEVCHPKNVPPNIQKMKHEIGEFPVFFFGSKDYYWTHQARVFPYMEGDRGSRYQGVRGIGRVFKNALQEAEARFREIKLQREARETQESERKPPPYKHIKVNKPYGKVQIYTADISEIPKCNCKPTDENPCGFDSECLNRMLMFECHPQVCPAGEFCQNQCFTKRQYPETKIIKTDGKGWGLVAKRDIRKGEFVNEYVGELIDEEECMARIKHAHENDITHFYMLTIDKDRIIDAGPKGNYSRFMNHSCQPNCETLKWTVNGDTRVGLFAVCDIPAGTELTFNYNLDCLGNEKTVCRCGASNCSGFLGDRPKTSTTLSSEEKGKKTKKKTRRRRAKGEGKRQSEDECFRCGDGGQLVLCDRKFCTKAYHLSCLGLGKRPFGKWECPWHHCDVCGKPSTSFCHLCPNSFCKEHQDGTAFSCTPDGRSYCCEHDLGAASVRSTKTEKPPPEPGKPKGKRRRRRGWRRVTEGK
Format: biochemical.

The target of assay [18] is T5, Ubiquitin-conjugating enzyme E2 N (Homo sapiens, UniProt P61088).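 Further: Dose-response confirmation in a TR-FRET assay detecting UBC13-driven polyubiquitin chain formation, inhibition measured.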
T5 sequence (P61088 whole entry): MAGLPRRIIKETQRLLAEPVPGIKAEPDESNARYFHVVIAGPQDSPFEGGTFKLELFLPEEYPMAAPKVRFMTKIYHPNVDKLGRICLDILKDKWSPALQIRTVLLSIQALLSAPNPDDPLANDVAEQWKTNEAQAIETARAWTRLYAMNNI
Format: functional.

The next assay deals with INS1. Briefly: beta cell apoptosis inhibitors, cytokine rescue, dose response, luminescence, retest (AID 449756).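 Further: cell death triggered by IL-1 beta plus TNF-alpha plus IFN-gamma mixture; protective hits raise ATP signal compared with cytokine alone wells.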 Format: functional, cell-based. The following applies: Rattus norvegicus.
Another assay has as its target T6, Estrogen receptor (Homo sapiens, UniProt P03372).
T6 sequence (P03372 whole entry): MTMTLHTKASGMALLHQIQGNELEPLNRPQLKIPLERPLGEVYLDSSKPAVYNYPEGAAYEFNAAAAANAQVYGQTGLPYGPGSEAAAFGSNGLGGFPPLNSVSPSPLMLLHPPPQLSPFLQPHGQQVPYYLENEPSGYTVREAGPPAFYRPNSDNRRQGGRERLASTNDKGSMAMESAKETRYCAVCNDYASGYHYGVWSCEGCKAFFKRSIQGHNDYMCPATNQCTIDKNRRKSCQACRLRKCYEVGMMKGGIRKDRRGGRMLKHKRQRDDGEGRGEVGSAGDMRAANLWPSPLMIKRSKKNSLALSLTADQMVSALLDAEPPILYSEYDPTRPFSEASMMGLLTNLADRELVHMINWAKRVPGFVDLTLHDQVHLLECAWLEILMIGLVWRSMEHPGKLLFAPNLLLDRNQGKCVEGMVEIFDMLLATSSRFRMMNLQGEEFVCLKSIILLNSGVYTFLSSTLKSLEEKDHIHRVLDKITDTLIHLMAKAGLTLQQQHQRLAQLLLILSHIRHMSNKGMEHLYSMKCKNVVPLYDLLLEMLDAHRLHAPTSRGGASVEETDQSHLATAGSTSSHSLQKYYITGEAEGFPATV

Assay [19] in a line: growth suppression of PTEN-null colon cells, dose response, cell-based, HCT116 PTEN knockout (AID 1047).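 Further: HCT116 colon tumor cells with PTEN knocked out; cells exposed to compound for 60 hours before readout; potency for loss of cell viability measured by luminescence.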 Type of assay: functional.
Assay [20] in a line: growth suppression of beta-catenin-knockout colon cells, dose response, cell-based, HCT116, human colon tumor (AID 1045).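 Further: HCT116 colon tumor cells with beta catenin knocked out; cells exposed to compound for 60 hours.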 Type of assay: functional.

T1 sequence (Q92731 whole entry): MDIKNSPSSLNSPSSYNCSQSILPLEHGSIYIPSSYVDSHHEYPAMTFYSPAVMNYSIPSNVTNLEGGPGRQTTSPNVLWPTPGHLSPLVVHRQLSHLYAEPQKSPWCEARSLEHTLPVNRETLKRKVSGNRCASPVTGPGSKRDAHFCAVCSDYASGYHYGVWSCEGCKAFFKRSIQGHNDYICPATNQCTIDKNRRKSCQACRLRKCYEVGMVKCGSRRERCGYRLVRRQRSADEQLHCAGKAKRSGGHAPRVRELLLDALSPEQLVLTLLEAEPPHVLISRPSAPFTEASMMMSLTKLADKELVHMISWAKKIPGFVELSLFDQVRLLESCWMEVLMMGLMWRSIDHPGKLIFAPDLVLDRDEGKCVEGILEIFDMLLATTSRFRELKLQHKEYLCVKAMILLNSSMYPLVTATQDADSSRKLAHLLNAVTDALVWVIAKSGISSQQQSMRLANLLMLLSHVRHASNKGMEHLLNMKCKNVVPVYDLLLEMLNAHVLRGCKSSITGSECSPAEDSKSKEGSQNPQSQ
Sequence of Intestinal-type alkaline phosphatase (P09923 whole entry): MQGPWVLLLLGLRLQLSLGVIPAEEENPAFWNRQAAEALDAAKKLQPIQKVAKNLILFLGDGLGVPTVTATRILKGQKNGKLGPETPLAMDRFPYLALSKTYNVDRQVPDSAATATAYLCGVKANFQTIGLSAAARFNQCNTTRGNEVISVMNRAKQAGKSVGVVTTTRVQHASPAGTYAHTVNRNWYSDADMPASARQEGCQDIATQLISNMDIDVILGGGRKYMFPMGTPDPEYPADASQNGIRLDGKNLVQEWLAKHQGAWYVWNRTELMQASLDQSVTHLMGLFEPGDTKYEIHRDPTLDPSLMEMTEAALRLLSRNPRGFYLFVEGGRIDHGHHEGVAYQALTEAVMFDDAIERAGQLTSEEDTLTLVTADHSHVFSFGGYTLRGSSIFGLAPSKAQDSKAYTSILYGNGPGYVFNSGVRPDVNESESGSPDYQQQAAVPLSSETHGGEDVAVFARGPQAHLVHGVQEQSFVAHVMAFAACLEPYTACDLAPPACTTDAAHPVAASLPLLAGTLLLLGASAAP
Sequence of Neurotensin receptor type 1 (P30989 whole entry): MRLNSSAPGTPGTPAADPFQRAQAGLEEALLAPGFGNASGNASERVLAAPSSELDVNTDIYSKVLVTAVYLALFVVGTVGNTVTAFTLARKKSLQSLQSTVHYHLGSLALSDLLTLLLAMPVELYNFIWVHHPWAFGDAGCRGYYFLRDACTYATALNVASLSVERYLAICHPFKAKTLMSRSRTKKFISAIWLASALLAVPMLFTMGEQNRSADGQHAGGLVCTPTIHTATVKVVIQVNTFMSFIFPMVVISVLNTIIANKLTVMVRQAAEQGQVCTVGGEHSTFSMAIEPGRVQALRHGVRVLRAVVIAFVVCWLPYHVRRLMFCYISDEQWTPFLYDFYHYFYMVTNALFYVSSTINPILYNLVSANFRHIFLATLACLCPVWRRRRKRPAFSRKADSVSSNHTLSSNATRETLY
Sequence of G-protein coupled receptor 35 (Q9HC97 whole entry): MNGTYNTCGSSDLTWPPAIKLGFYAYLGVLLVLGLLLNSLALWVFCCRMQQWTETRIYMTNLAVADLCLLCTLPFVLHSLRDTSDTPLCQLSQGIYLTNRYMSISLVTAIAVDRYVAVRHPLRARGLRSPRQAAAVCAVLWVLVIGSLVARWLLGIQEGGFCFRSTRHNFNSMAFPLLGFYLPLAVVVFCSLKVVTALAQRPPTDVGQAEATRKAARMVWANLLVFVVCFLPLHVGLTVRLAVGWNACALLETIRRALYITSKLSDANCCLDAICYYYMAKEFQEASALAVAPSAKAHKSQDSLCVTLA
Sequence of Large T antigen (P03070 whole entry): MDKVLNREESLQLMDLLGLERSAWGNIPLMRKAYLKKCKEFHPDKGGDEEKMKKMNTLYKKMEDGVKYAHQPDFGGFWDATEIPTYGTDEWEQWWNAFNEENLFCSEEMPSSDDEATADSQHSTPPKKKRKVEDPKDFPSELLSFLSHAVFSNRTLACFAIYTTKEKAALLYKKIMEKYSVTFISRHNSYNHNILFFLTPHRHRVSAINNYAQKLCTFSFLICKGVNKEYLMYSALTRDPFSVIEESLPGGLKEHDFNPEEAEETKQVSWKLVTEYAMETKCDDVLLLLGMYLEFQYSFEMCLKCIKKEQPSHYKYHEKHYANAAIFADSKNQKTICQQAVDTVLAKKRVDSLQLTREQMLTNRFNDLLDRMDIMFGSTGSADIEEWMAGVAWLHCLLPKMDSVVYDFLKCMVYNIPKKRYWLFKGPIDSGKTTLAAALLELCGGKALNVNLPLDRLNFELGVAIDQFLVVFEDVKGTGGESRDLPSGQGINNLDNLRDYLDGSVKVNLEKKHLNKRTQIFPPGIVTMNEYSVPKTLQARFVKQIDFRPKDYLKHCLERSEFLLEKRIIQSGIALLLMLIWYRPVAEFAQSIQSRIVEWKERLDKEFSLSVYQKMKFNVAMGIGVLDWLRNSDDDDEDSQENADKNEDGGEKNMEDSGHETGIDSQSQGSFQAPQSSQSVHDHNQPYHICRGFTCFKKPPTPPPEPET

In the case of `CCOC(=O)c1ccc(NC(=O)COc2ccc(-n3cnnn3)cc2)cc1`, the IC50 (in general, the point on the concentration scale where inhibition reaches its midpoint) against Estrogen receptor beta [1] is 0.0598 µM (not active).

On to `CS(=O)(=O)N1N=C(c2ccccc2)CC1c1ccc2c(c1)OCO2` (stereo unspecified), for which the IC50 in assay [2] was 1.42 µM (active).

In the case of `O=C1CN2C(=Nc3ccc(Cl)cc3C2c2ccccc2)CN1` (stereo unspecified), the EC50 – broadly, the concentration at which the effect is half-maximal – in [3] is > 160 µM (inactive); in assay [4], 3.04 µM (active). Besides, the IC50 in “cells” was 24.2 µM (active).

In the case of `CC(C)CCOc1ccc(C(=O)C[N+]2(C)CCOCC2)cc1`, the IC50 is > 50 µM (not active) in [5] and 9.75 µM (active) in assay [6].

Turning to `COc1ccc(C(=O)c2cc([N+](=O)[O-])ccc2N2CCN(C)CC2)cc1`, the EC50 in the assay with BJ [7] was 9.22 µM (inconclusive); in the assay on BJ [8], 32.9 µM (active); with BJ [9], 4.39 µM (active); in assay [10] it was 5.04 µM (active).

`O=C(CCc1ccccc1)Nc1nnc(-c2cccs2)o1`: the IC50 on Estrogen receptor beta [11] is > 50 µM (not active).

As to `CC(C)C(=O)n1nc(-c2cccnc2)nc1NCc1ccc(F)cc1`, the IC50 on Prothrombin is 0.00567 µM (active).

As for `Nc1nc(-c2ccc(Cl)cc2)nn1C(=O)c1cccnc1`, the IC50 at Prothrombin was 1.37 µM (active).

Turning to `Cc1ccc(C(=O)c2ccc(N3CCN(C)CC3)c([N+](=O)[O-])c2)cc1`, the EC50 (with BJ [7]; with BJ [8]; in the assay on BJ [9]; in assay [10]) was > 150 µM (not active) throughout.

For the compound `CCCC(=O)n1nc(-c2ccco2)nc1SCc1ccccc1`, the IC50 on Prothrombin is 0.0232 µM (active).

For `CCOC(=O)c1ccc2[nH]c3c(c2c1)CN(C)CC3`, the IC50 in the assay “cells” was 1.22 µM (active).

In the case of `CN(CCO)c1cc(N2CCC3(CC2)OCCO3)c2nonc2c1[N+](=O)[O-]`, the EC50 in [12] was > 100 µM (active).

For the compound `N#C/C(=C/c1ccc(N2CCOCC2)o1)C(=O)N1CCOCC1`, in assay [12], the EC50 was > 100 µM (active).

For `CCOC(=O)c1sc(NC(=O)Cn2nnc3sc4c(c3c2=O)CCC(C(C)(C)C)C4)nc1C` (stereo unspecified), the CC50 (usually the concentration giving 50% cytotoxicity) in [13] was 23.7 µM (active). The IC50 in the assay “cells” was > 25 µM (active).

On to `COc1cc(/C=C/C(=O)OCC(=O)NC(=O)NC2CCCCC2)ccc1OC(F)F`, for which, in [14], the IC50 was > 100 µM (inactive).

As to `COc1ccccc1C1CN(c2ccccc2)N=C1c1cccs1` (stereo unspecified), the IC50 in [14] was > 100 µM (inactive).

For the compound `COc1cc(/C=C2\C(=O)ON=C2c2ccc(Cl)cc2)ccc1O`, the IC50 at Large T antigen was 14.6 µM (active). Also, the half-maximal activity concentration (AC50) – broadly, the concentration at which the activity in the assay is half-maximal – in assay [15] is 1.76 µM (active); in [17], > 20 µM (inactive). Moreover, the EC50 in assay [16] is 12.1 µM (active).

In the case of `COC(=O)C1=C(C)N(Cc2ccccc2)C(NCc2ccccc2)=N[C@H]1c1cccc(C(F)(F)F)c1`, the results for the concentration at half-maximal activity (AC50) (in [15]; in the assay on INS1) were 3.27 µM (active) and 8.05 µM (active), respectively. In assay [18], the IC50 is > 20 µM (inactive). Moreover, in assay [16], the EC50 was 13.7 µM (active).

With `O=S(=O)(Nc1nccs1)c1cc(Cl)ccc1Cl`, the IC50 against Estrogen receptor was > 50 µM (not active); on Estrogen receptor beta [11] it was > 50 µM (not active); against Estrogen receptor beta [1] it was 78.6 µM (not active).

Consider `CC/C(=N/Nc1ccccc1)c1cnnc(-c2ccccc2)n1`, for which the results for the IC50 on Estrogen receptor beta [11] and against Estrogen receptor beta [1] were > 50 µM (not active) and 6.12 µM (not active), respectively. In addition, the EC50 in [19] is 60.2 µM (active); in assay [20] it was 70.6 µM (active).
